Assay results as given in patent US5871779A, “Treatment of arthropathies with vanadate compounds or analogues thereof” (Mount Sinai Hospital Corporation, priority 1996, dated 1999).
“And” between values parts separate entries of the source, which are not always exact repeats. Equal entries are not always repeated.

Assays:
[1] = body weights of mice, BMOV solution and beads (Example 19); assay type: in vivo
Protocol: On day 6 the mice were divided into 6 groups as follows: group 1, empty control; group 3, tumor control; group 3, injected subcutaneously with 0.25 mg/100μl BMOV, twice a day; group 4, injected IP with 20 mg palla beads containing 5 mg of BMOV; group 5, injected IP with 10 mg of BMOV beads on day 6 and day 9 respectively and; group 6, injected intramuscularly with 10 mg of BMOV beads on day 6 and day 9. On day 16, the mice were sacrificed and tumors were dissected.
The body weights of mice in control and treated groups, and the tumor weights from control and treated mice, are shown in Tables 5 and 6 respectively.

IL-1α = experiment: synovial IL-1α expression in arthritic rats (Northern blot); assay type: in vivo, rat; settings: BMOV-treated (with NAC) vs control, Day 18
Protocol: Collagenase, stromelysin, and IL-1 expression were quantitated in each group of rats. Selected rats in each group were sacrificed on Day 18 post arthritis onset to measure collagenase, stromelysin, and IL-1 expression via the Northern Blot. Synovial biopsies were pooled and homogenized in the presence of RNASTAT-60 (Tel Test). Total RNA was isolated following the manufacturer's instructions, washed in 70% ethanol, and dissolved in 30 μl RNA loading buffer (Sigma) containing ethidium bromide. The RNA was electrophoresed on a 1% agarose formaldehyde gel and transferred to 0.45 μm nylon filter membrane (Magna NT, MSL). The blot was prehybridised in 50% formamide, 5×SSPE, 5×dendhardts, 1% SDS, 200 μg/ml ssDNA and 50 μg/ml tRNA. The rat collagenase cDNA (bp. 1-550 of locus RATCOL genbank accession M60616), rat stromelysin (ATCC, Rockville, Md.), or rat […] (genbank accession D00403) were labeled by random primed incorporation of ^32 P-dATP (Random Primed Labeling Kit, Boerhinger Manheim). After overnight hybridization at 42° C. overnight, the blot was washed in 1×SSPE at 37° C. and exposed to Kodak X-Ornat AP film for 24 hours at -70° C. with an intensifying screen. The blot was stripped with 50% formamide in 2×SSPE, checked for residual counts and reprobed. The resulting autoradiographs were digitized and analyzed with NIH image software and normalized for RNA loading.

HTB14 cells = experiment: viability of HTB14 cells; assay type: cell-based, human; settings: 0-50 μM, 48 hours
Protocol: Fos and jun activity are also required for cellular proliferation in many tumor cell lines. Accordingly, the effect of orthovanadate on adherent cells and cell suspensions were examined. MDAY-D2 (a mouse lymphoid cell line grown in suspension) and HTB14 cells (an adherent human primary astrocytoma cell line) were incubated in media containing 0-50 μM orthovanadate for 48 hours. The cells were harvested and the number of viable cells determined.

PGE2 = PGE2 production by chondrocytes (RIA); assay type: cell-based, bovine; settings: 100 μM
Protocol: The effect of orthovanadate and N-acetylcysteine on fos, jun and collagenase expression were examined. Bovine articular chondrocytes were isolated and plated as previously described (Kandel R. A. et al. Biochim. Biophys. Acta. 1053, 130-134, 1990). In order to determine the effect of orthovanadate on IL 1 and PMA (phorbol ester) induced responses, chondrocytes were incubated with orthovanadate (100 μM) for 2 hours before stimulation with IL 1 (10 ng/ml) or PMA ([…]). Collagenase production was determined by incubating chondrocytes for 24 hours with IL 1 or PMA and the cell conditioned medium was assayed for collagenase activity using an ELISA procedure as described previously (Kandel et al. supra). PLA2 activity was measured by incorporating ^3 H-arachidonic acid (^3 H-AA) into the cells and then incubating the cells with medium containing 1 mg/ml BSA, either alone or in the presence of IL 1 or PMA, for 10 min. as previously described (Conquer, J. A. […], Biochim. Biophys. Acta. 1134, 1-6). The amount of ^3 H-AA liberated into the supernatant was determined. To measure PGE2 production, chondrocytes were incubated for 6 hours in Ham's F12 medium, either alone or with IL 1 or PMA. The supernatant was analyzed by RIA using an antibody specific for PGE2 (Dr. S. A. Jones, Mount Sinai Hospital, Toronto, Canada). […]

| SMILES | Body weight, Average ([1]; BMOV solution 0.25 mg × 1) | Body weight ([1]; BMOV solution 0.25 mg × 1, individual mice) | percent inhibition of IL-1α gene expression (IL-1α) | toxicity to HTB14 cells (HTB14 cells) | inhibition of IL 1 or PMA induced PGE2 production (PGE2) |
| --- | --- | --- | --- | --- | --- |
| Cc1occc(=O)c1[O-].Cc1occc(=O)c1[O-].[O]=[V+2] [BMOV, bis(methylmaltolato) oxovanadium (IV)] | 17.87 | 18.8 and 17.8 and 18.4 and 17.3 | 85% |  |  |
| [Na+].[Na+].[Na+].[O]=[V]([O-])([O-])[O-] [orthovanadate, sodium orthovanadate] |  |  |  | toxic | did not inhibit |
